Test results published in patent US12729180B2, “Functionalized Maleimides and Isomaleimides and a process for preparation thereof” (COUNCIL OF SCIENTIFIC AND INDUSTRIAL RESEARCH, priority 2021, dated 2026).

Tested on: MCF-7 breast cancer cell line
Test: MTT assay against breast cancer cell line
Type: cell-based
Settings: Homo sapiens, MCF7, 72 hours after treatment; for cytotoxicity at 100 µM / viability at 100 µM: MCF-7, 100 uM; for cytotoxicity at 100 µM / cytotoxicity at 300 µM: read-out: % Dead cells; for viability at 100 µM / viability at 300 µM: read-out: % Live cells; for cytotoxicity at 300 µM / viability at 300 µM: MCF-7, 300 uM
Protocol: In another embodiment, the functionalized maleimides and isomaleimides of Formula (I) are useful as antimicrobials and anti-cancer agents. MTT assay of compounds of Formula (I) is summarized below in Table-1 The compounds were tested against breast cancer cell line at 100 and 300 μM concentrations and % live and % dead cells were determined.
The compounds were evaluated for anti-cancer activity by testing them against breast cancer cell lines obtained from NCCS, Pune, India. The MITT assay was carried out. The assay procedure involves reconstitution of the pre-measured MTT reagent in the assay buffer, followed by its addition to the culture system. After dissolving the formazan crystals in the solubilization solution, results can be directly read on a suitable reader.
• 1. Harvest the cells; • 2. Seed 10,000 cells in 100 μl DMEM media/well in 96-well microtiter plate in triplicate; • 3. Incubate the cells at 37° C., 5% CO2 for 24 hours to achieve morphology; • 4. Treat the cells with varying concentrations of drugs; • 5. Controls included untreated cells and cells treated with 100 uM Doxorubicin; • 6. Incubate the cells for 72 hours after treatment; • 7. Add 10 μl of MTT to each well, including controls; • 8. Wrap the plate with aluminium foil to avoid exposure to light; • 9. Return the plate to the incubator for 2 hours; • 10. Observe the cells under an inverted microscope for presence of intracellular needle-shaped, dark purple coloured precipitate; • 11. When the purple precipitate is clearly visible under the microscope, add 100 μl of solubilization solution to the wells; • 12. Stir gently on a gyratory shaker to enhance dissolution of the crystals; • 13. Read the absorbance on a spectrophotometer or an ELISA reader at 570 nm with a reference wavelength higher than 650 nm.

SMILES	cytotoxicity at 100 µM	viability at 100 µM	cytotoxicity at 300 µM	viability at 300 µM
CCOC(=O)CC1=C(Cc2cc(OC)ccc2OC)C(=O)O/C1=N\C1CCC(C)CC1 (stereo not drawn) [Compound 3d, Ethyl (Z)-2-(4-(2,5-dimethoxybenzyl)-2-((4-methylcyclohexyl)imino)-5-oxo-2,5-dihydrofuran-3-yl)acetate]	32.9%	67.1%	54.4%	45.6%
CCOC(=O)CC1=C(Cc2c3ccccc3cc3ccccc23)C(=O)O/C1=N\C1CCC(C)CC1 (stereo not drawn) [Compound 3k, Ethyl (Z)-2-(4-(anthracen-9-ylmethyl)-2-((4-methylcyclohexyl)imino)-5-oxo-2,5-dihydrofuran-3-yl)acetate]	27.4%	72.5%	33%	67%
CCOC(=O)CC1=C(Cc2ccc(F)c(F)c2)C(=O)O/C1=N\C1CCC(C)CC1 (stereo not drawn) [Compound 3g, Ethyl (Z)-2-(4-(3,4-difluorobenzyl)-2-((4-methylcyclohexyl)imino)-5-oxo-2,5-dihydrofuran-3-yl)acetate]	26.4%	73.6%	47.2%	52.8%
CCOC(=O)CC1=C(Cc2ccccc2F)C(=O)O/C1=N\C1CCC(C)CC1 (stereo not drawn) [Compound 3f, Ethyl (Z)-2-(4-(2-fluorobenzyl)-2-((4-methylcyclohexyl)imino)-5-oxo-2,5-dihydrofuran-3-yl)acetate]	26.6%	73.4%	49.6%	50.4%
CCOC(=O)CC1=C(Cc2ccc(Cl)cc2)C(=O)O/C1=N\C1CCC(C)CC1 (stereo not drawn) [Compound 3e, Ethyl (Z)-2-(4-(4-chlorobenzyl)-2-((4-methylcyclohexyl)imino)-5-oxo-2,5-dihydrofuran-3-yl)acetate]	45.3%	54.7%	53.7%	46.3%
CCOC(=O)CC1=C(C(c2ccccc2)c2ccccc2)C(=O)O/C1=N\C1CCC(C)CC1 (stereo not drawn) [Compound 3p, Ethyl (Z)-2-(4-benzhydryl-2-((4-methylcyclohexyl)imino)-5-oxo-2,5-dihydrofuran-3-yl)acetate]	43.5%	56.5%	51.1%	48.9%
CCOC(=O)CC1=C(Cc2cccc(C(F)(F)F)c2)C(=O)O/C1=N\C1CCC(C)CC1 (stereo not drawn) [Compound 3h, Ethyl (Z)-2-(2-((4-methylcyclohexyl)imino)-5-oxo-4-(3-(trifluoromethyl)benzyl)-2,5-dihydrofuran-3-yl)acetate]	49.1%	50.9%	60.9%	39.1%
CCOC(=O)CC1=C(Cc2ccc3ccccc3c2)C(=O)O/C1=N\C1CCC(C)CC1 (stereo not drawn) [Compound 3j, Ethyl (Z)-2-(2-((4-methylcyclohexyl)imino)-4-(naphthalen-2-ylmethyl)-5-oxo-2,5-dihydrofuran-3-yl)acetate]	51.7%	48.3%	59.7%	40.3%
CCOC(=O)CC1=C(Cc2cccc(Oc3ccccc3)c2)C(=O)O/C1=N\C1CCC(C)CC1 (stereo not drawn) [Compound 3c, Ethyl (Z)-2-(2-((4-methylcyclohexyl)imino)-5-oxo-4-(3-phenoxybenzyl)-2,5-dihydrofuran-3-yl) acetate]	32.9%	67.1%	34.8%	65.2%
